Test results taken from ChEMBL document CHEMBL1201862, “PubChem BioAssay data set” (2004).
Calls of active or inactive are those of the source.

Tests used:
[1] = target: T1, Rac GTPase-activating protein 1 (Homo sapiens, UniProt Q9H0H5); assay: blockers of MgcRacGAP-driven Rac1 GTP hydrolysis – biochemical, ADP Hunter fluorescence, primary and confirmatory, confirmation (AID 624330); assay type: functional
T1 sequence (Q9H0H5 whole entry): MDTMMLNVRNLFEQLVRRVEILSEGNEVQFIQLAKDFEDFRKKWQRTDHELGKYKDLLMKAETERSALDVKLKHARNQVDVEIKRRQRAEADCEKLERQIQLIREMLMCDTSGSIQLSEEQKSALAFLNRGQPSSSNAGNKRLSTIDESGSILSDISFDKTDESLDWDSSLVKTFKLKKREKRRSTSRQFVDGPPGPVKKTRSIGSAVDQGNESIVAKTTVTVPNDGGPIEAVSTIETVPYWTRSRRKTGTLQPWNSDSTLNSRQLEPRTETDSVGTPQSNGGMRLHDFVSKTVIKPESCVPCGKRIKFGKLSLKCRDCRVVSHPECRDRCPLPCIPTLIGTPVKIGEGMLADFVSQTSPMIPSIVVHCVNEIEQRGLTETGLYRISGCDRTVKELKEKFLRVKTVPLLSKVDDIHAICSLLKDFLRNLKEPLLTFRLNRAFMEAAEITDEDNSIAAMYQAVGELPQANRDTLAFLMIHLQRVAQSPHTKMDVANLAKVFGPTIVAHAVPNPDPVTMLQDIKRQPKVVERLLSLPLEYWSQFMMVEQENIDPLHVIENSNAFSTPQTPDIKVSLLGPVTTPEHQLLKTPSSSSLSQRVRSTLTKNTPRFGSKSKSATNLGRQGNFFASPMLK

[2] = target: T2, Polyadenylate-binding protein 1 (Homo sapiens, UniProt P11940); assay: MLLE binding blockers, Cy5 peptide tracer – biochemical, fluorescence polarization, Cy5-PAM2 peptide, secondary, miRNA deadenylation inhibitor project, dose response (AID 602260); assay type: functional; details: read-out: IC50_Mean
T2 sequence (P11940 whole entry, the tested form may be a part): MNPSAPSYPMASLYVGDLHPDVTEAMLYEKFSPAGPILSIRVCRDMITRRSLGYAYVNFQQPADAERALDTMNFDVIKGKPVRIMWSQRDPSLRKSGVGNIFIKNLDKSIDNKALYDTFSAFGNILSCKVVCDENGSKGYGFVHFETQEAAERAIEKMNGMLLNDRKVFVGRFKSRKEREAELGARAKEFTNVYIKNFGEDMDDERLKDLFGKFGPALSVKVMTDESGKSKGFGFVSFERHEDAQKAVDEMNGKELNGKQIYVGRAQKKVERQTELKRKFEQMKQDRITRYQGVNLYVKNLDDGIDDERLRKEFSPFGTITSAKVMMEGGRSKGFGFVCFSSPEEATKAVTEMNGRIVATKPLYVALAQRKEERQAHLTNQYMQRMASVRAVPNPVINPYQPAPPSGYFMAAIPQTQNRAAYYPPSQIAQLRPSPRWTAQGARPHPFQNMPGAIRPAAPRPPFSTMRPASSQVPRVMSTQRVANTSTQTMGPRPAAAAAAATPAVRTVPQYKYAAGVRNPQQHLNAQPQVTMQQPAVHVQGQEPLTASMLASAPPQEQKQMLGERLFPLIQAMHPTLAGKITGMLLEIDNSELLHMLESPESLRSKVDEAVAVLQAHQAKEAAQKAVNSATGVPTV

[3] = target: T2, Polyadenylate-binding protein 1; assay: MLLE domain peptide-binding blockers, IC50 – biochemical, fluorescence polarization, FITC-PAM2 peptide, dose response (AID 602259); assay type: functional; details: read-out: IC50_Mean
[4] = target: T3, Cytochrome P450 1A2 (Homo sapiens, UniProt P05177);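 note: PubChem cytochrome P450 panel assay, CYP1A2 panel member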
T3 sequence (P05177 whole entry): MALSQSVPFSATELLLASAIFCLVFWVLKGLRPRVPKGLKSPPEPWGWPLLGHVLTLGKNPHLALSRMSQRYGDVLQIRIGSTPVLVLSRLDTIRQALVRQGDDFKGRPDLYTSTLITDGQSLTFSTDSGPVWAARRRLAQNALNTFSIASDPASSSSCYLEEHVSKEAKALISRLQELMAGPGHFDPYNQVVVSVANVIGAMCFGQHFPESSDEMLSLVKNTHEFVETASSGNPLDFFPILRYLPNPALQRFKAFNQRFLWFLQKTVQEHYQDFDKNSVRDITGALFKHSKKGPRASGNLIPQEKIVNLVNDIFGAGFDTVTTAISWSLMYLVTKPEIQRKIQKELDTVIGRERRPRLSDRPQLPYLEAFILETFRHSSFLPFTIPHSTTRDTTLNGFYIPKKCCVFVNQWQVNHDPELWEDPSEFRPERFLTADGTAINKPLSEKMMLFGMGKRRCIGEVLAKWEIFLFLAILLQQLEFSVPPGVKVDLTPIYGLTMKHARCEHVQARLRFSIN

[5] = target: Cytochrome P450 2C9 (Homo sapiens, UniProt P11712)
Chain of Cytochrome P450 2C9 (P11712 whole entry): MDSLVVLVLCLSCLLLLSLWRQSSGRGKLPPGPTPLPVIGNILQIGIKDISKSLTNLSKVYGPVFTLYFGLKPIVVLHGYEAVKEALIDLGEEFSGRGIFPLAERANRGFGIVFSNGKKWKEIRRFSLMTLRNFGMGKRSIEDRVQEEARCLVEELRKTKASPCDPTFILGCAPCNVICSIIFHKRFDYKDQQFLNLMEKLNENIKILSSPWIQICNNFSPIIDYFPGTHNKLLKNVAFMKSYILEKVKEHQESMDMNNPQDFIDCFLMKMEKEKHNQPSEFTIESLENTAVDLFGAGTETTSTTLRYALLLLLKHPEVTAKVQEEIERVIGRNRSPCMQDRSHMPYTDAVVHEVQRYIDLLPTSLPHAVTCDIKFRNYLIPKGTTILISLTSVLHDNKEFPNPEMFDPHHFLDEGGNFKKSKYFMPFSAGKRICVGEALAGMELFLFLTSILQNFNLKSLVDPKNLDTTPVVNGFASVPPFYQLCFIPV

[6] = viability of uninfected HEp-2 cells – cell-based, HTS, cytotoxicity control for RSV inhibitor project, dose response (AID 2410); assay type: functional; details: human respiratory syncytial virus
[7] = microbe, parasite or virus in culture; assay type: functional; details: Mycobacterium tuberculosis
[8] = Luminescence Cell-Based Dose Retest to Confirm Inhibitors of Cancer Stem Cells. [Related pubchem assays (depositor defined):AID2717, AID2721]; assay type: functional; details: Homo sapiens
[9] = cells; assay type: functional, cell-based
[10] = cells; assay type: functional, cell-based; remark: listed apart in the source
[11] = target: T4, Heat shock factor protein 1 (Mus musculus, UniProt P38532); assay: decrease of HSF1-responsive luciferase luminescence – cell-based, NIH3T3, dose retest, confirmation (AID 2382); assay type: functional;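 note: NIH3T3 fibroblasts with HSF1-driven luciferase reporter stressed by proteasome inhibitor MG132; luminescence from HSF1-driven luciferase expression after 8 hours of MG132 stress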
T4 sequence (P38532 whole entry): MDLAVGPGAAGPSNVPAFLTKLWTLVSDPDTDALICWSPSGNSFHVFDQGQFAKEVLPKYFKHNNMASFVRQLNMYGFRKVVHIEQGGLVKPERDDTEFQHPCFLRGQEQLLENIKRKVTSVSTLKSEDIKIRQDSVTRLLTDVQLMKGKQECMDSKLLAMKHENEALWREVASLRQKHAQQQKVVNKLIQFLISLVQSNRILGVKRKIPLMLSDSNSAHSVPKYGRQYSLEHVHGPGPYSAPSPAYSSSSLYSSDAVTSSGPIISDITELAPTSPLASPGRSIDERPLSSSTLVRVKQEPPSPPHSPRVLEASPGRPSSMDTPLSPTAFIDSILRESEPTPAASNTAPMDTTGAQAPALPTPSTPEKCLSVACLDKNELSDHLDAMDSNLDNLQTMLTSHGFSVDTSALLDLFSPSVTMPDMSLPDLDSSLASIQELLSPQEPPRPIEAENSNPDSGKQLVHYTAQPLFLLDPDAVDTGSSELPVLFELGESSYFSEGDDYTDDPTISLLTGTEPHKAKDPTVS

[12] = viability of PTEN-deleted HCT116 cells – cell-based, HCT116 PTEN knockout, dose response (AID 1047); assay type: functional;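 note: HCT116 colon tumor cells with PTEN knocked out; cells exposed to compound for 60 hours before readout; potency for loss of cell viability measured by luminescence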
[13] = viability of HCT116 lacking mutant beta-catenin – cell-based, human colon tumor, dose response (AID 1045); assay type: functional;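 note: HCT116 colon tumor cells with beta catenin knocked out; cells exposed to compound for 60 hours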
[14] = target: Cytochrome P450 2C19 (Homo sapiens, UniProt P33261); assay: Cytochrome panel assay with activity outcomes. Panel member name: p450-cyp2c19 Compounds with AC50 equal or less than 10 uM are considered active; assay type: functional; details: read-out: AC50
Chain of Cytochrome P450 2C19 (P33261 whole entry): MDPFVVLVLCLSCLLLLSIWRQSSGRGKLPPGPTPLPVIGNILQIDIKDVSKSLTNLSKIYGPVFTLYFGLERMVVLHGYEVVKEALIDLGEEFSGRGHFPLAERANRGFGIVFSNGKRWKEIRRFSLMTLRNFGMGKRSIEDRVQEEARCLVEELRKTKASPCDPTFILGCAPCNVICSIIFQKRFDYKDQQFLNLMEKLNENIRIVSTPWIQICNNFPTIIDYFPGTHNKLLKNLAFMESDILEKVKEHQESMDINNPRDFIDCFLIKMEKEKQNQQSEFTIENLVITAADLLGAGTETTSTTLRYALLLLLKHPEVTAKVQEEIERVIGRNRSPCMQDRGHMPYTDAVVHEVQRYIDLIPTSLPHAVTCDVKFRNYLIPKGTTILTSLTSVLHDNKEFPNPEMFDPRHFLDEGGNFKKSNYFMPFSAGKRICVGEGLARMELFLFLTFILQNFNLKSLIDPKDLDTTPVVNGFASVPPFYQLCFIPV

[15] = HEK-293T cell viability reduction – luminescence, B-cell screen hits, cytotoxicity control for BCR NF-kB inhibitor project, dose response (AID 489021); assay type: functional, cell-based;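 note: HEK-293T cells carrying an NF-kB luciferase reporter; cells exposed to compound for about 14 hours before viability readout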
[16] = target: T5, Protein skinhead-1 (Caenorhabditis elegans, UniProt P34707); assay type: functional
T5 sequence (P34707 whole entry): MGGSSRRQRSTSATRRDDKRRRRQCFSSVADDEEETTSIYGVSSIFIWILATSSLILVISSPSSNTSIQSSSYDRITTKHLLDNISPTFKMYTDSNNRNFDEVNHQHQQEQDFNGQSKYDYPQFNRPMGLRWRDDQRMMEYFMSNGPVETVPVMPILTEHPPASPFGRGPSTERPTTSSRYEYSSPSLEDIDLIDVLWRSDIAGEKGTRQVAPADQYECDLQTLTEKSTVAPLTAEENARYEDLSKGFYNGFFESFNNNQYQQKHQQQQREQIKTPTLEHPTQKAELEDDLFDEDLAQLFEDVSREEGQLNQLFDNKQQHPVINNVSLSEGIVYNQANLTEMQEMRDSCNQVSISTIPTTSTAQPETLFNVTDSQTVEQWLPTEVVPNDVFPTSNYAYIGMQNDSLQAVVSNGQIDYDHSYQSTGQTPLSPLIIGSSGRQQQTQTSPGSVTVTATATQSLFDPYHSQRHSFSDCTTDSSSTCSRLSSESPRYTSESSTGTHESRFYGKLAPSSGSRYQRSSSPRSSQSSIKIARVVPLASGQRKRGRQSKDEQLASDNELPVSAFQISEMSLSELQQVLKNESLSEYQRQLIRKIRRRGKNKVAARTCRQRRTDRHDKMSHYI

[17] = target: FAD-linked sulfhydryl oxidase ALR (Homo sapiens, UniProt P55789); assay: ALR-catalysed DTT oxidation blockers – biochemical, H2O2 detection, luminescence, cherry-pick, dose response (AID 493248)
Chain of FAD-linked sulfhydryl oxidase ALR (P55789 whole entry): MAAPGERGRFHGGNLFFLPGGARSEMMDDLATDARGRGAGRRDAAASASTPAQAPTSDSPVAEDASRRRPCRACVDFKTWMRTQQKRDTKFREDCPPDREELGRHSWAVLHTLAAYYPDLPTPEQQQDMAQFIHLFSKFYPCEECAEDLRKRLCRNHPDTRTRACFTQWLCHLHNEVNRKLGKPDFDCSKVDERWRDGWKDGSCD

[18] = target: Paired box protein Pax-8 (Homo sapiens, UniProt Q06710); assay: PAX8 transcriptional activity inhibition in RMG-I – RMG-I cells, luciferase, cherry-pick, dose response (AID 687027); assay type: functional, cell-based;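 note: luciferase reporter driven by Pax8 target thyroperoxidase promoter measured by SteadyGlo luminescence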
Chain of Paired box protein Pax-8 (Q06710 whole entry): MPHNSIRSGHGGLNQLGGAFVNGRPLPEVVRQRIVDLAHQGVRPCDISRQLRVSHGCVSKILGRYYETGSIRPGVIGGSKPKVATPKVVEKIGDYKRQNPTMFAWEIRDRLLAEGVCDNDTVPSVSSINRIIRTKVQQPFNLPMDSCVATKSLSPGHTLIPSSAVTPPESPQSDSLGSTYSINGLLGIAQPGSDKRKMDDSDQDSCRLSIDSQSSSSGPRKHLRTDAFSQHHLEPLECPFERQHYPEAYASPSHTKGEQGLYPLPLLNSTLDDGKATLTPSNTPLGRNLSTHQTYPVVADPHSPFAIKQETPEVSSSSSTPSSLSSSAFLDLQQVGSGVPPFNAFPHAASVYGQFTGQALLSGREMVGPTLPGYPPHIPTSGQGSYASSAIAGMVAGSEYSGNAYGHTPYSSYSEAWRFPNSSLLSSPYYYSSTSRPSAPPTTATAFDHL

[19] = tested on: INS1; assay: INS-1E survival protection against cytokine death – cell-based, luminescence, retest, dose response (AID 449756); assay type: functional; details: Rattus norvegicus;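 note: cell death triggered by IL-1 beta plus TNF-alpha plus IFN-gamma mixture; protective hits raise ATP signal compared with cytokine alone wells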

Nc1ccc(Nc2nc(-c3ccncc3)cs2)cc1
IC50 [1]: 9.36 µM (active)

FC(F)(F)c1cccc(NC(S)=NN=C(S)NCc2ccccc2)c1
IC50 [2]: > 66 µM (inactive) | IC50 [3]: > 66 µM (inactive)

CC1CCN(C(=S)c2ccc(O)cc2)CC1
IC50 [2]: > 66 µM (inactive) | IC50 [3]: > 66 µM (inactive) | AC50 [4]: 14.1 µM (inconclusive) | AC50 [5]: 39.8 µM (inconclusive)

CC(C)c1ccccc1NC(=O)c1cccc(NC(=O)c2ccccc2)c1
CC50 [6]: 20.3 µM (active)

Cc1onc(-c2ccccc2Cl)c1C(=O)Nc1sc2c(c1C(N)=O)CCC(C)C2 (centres undefined)
CC50 [6]: 19.3 µM (active)

Cc1oc(C)c2c(=O)ccc3c(c12)OC(N)=C(C#N)C3c1ccccc1Cl (centres undefined)
CC50 [7]: > 40 µM (active)

COc1ccc(N2CCC(CN=C(S)Nc3cccc(C)c3)C2)cc1 (centres undefined)
IC50 [1]: 39.3 µM (active)

COc1ccc(Br)cc1C(=O)NC(=S)Nc1cc(-c2nc3ccccc3[nH]2)ccc1C
AC50 [8]: > 195 µM (inactive) | IC50 [2]: > 66 µM (inactive) | IC50 [3]: > 66 µM (inactive)

CCCCNC(=O)CN1C(=O)COc2ccc(S(=O)(=O)N3CCCCCC3)cc21
EC50 [9]: > 350 µM (not active) | EC50 [10]: > 350 µM (not active)

CC(=O)C[C@H]1c2cc(F)ccc2S(=O)(=O)N1c1ccc(N(C)C)cc1
EC50 [11]: 33.8 µM (active) | IC50 [1]: 119 µM (active)

CN(C)c1ccc(N=Nc2ccc(S(N)(=O)=O)cc2)cc1
EC50 [9]: > 350 µM (not active) | EC50 [10]: 3.13 µM (active)

CCOC(=O)C1SC2(C(F)(F)F)CC1(O)c1c(C)cc(C)nc1O2 (centres undefined)
IC50 [2]: > 66 µM (inactive) | IC50 [3]: > 66 µM (inactive)

CCc1cccc2c(C(=O)CCl)c[nH]c12
CC50 [7]: 24.4 µM (active)

CCC(C)c1ccc2oc(-c3ccc(NC(=O)Cn4cnc5c(=O)n(C)c(=O)n(C)c54)cc3)nc2c1 (centres undefined)
EC50 [9]: > 350 µM (not active) | EC50 [10]: 43.7 µM (active) | EC50 [12]: 9.27 µM (active) | EC50 [13]: 8.52 µM (active)

COc1ccc(CN2CCCN(C)CC2)c(OC)c1C
IC50 [1]: 124 µM (active)

C=CCN1C(=O)/C(=C\c2ccc(Cl)cc2)N=C1SCC(=O)NC1CCCCC1
IC50 [2]: > 66 µM (inactive) | IC50 [3]: > 66 µM (inactive)

CN1C(=S)SC(N(O)C(=O)Nc2ccc(Cl)c(Cl)c2)C1(C)C (centres undefined)
CC50 [7]: 38.9 µM (active)

Cc1ccccc1SCC(=O)OCC(=O)Nc1ccc(N(C)C)cc1
IC50 [1]: 66.7 µM (active)

O=C(O)CCC(C(=O)O)N1C(=O)/C(=C2/C(=O)Nc3ccccc32)SC1=S (centres undefined)
IC50 [2]: > 66 µM (inactive) | IC50 [3]: > 66 µM (inactive)

O=C(CN1C(=O)c2ccccc2S1(=O)=O)c1ccc(O)c(O)c1
IC50 [1]: 175 µM (active)

CS(=O)(=O)n1nc(-c2ccccc2)nc1NCc1ccco1
EC50 [9]: > 350 µM (not active) | EC50 [10]: > 350 µM (not active)

COCCNCCOCCOc1ccc(Cl)c(C)c1
IC50 [1]: 138 µM (active)

CC[C@H](C)[C@@H]1O[C@@]2(C=CC1C)CC1C[C@@H](CC=C(C)C(O[C@H]3CC(OC)C(O[C@H]4CC(OC)C(O)C(C)O4)C(C)O3)C(C)C=CC=C3CO[C@@H]4C(O)C(C)=C[C@@H](C(=O)O1)[C@]34O)O2 (some centres undefined)
CC50 [7]: 15.9 µM (active)

O=C(Nc1ccc2c(c1)Cc1ccccc1-2)c1cccnc1
CC50 [6]: 20.3 µM (active)

COc1cccc(NC(=O)CSC(N)=O)c1
IC50 [2]: > 66 µM (inactive) | IC50 [3]: > 66 µM (inactive)

COc1ccc(CNc2ccc(S(N)(=O)=O)cc2)cc1
IC50 [2]: > 66 µM (inactive) | IC50 [3]: > 66 µM (inactive)

CCOc1ccc(N(C(=O)/C=C/C(=O)Nc2cc(C)on2)C(C(=O)NC2CCCC2)c2ccccc2C)cc1 (centres undefined)
CC50 [7]: 20.2 µM (active) | AC50 [14]: 31.6 µM (inconclusive)

COc1ccc(OC)c(S(=O)(=O)Nc2ccc(-c3ccc4nnc(C)n4n3)cc2)c1
IC50 [15]: > 80 µM (inactive)

CC/C(=C\c1ccc(N(C)C)cc1)c1ccncc1
IC50 [16]: > 100 µM (inactive) | IC50 [1]: 30.2 µM (active)

O=C(CN1CCN(c2ccc(O)cc2)CC1)N(C1CC1)C1CCS(=O)(=O)C1 (centres undefined)
AC50 [17]: 0.238 µM (active) | IC50 [1]: 80.2 µM (active)

COC(=O)C1CCN(C(=O)COC(=O)/C=C/c2ccc(O)c(OC)c2)CC1
IC50 [1]: 49.7 µM (active)

C[C@H](CO)N1C[C@H](C)[C@@H](CN(C)C(=O)NC2CCCCC2)Oc2cc(C#Cc3ccc(F)cc3)ccc2S1(=O)=O
AC50 [18]: 9.52 µM (active)

C[C@@H]1CN([C@@H](C)CO)C(=O)c2cc(NC(=O)Nc3ccc(C(F)(F)F)cc3)ccc2O[C@@H](C)CCCCO[C@@H]1CN(C)CC1CCCCC1
AC50 [18]: 3.9 µM (active)

CC(C)c1ccc(/C=N/N2CCN(c3ccccn3)CC2)cc1
CC50 [6]: 35.7 µM (active)

CCOC(=O)C(/C=N/c1ccc(NC2=NCC(C)S2)cc1)=C(/O)OCC (centres undefined)
EC50 [9]: > 350 µM (not active) | EC50 [10]: > 350 µM (not active)

CCN(CC)S(=O)(=O)c1ccc(N/N=C/c2cc(OC)ccc2O)nc1
EC50 [9]: 302 µM (active) | EC50 [10]: 25.7 µM (active) | AC50 [8]: 4.47 µM (active) | AC50 [19]: 1.69 µM (active)

COC(=O)c1cc(=O)n(Cc2ccc3c(c2)OCO3)/c(=N/c2ccc(F)cc2)s1
CC50 [6]: 33.2 µM (active) | EC50 [12]: 27.9 µM (active) | EC50 [13]: 26.2 µM (active)
